Data from paper PMC9114170, “Investigation of the Role of Hydrophobic Amino Acids on the Structure-Activity Relationship in the Antimicrobial Venom Peptide Ponericin L1” (The Journal of membrane biology, 2021).
Ends that are not written are not given here.

Key:
[1] = Red edge excitation shift (REES) solution aggregation assay; type: physicochemical; conditions: 2 μM peptide in PBS pH 7.0, λex 280 to 307 nm, emission 310 to 410 nm, Trp fluorescence, average of three replicates
Text: All fluorescence spectroscopy experiments were preformed using a JY-Horiba Fluoromax4 instrument. Excitation and emission slit widths were kept consistent at 2.5 nm. Semi-micro quartz cuvettes were utilized for each experiment. The following formula was used to calculate a spectral barycenter for each experiment: (1) B=∑λ*i/∑i where B is the barycenter, λ is the wavelength, and i is the intensity at the specified wavelength. An entire emission spectrum from 300-400 was used the carry out the calculation of barycenter.
Red edge excitation shift (REES) experiments utilized excitation at 6 different wavelengths (λex = 280, 290, 295, 300, 305, and 307 nm) and the same emission range of 310 to 410 nm. Samples were similarly prepared as above. A blank only containing PBS buffer was used as background to correct the spectra after each addition.
Aggregation of peptides was assessed utilizing the intrinsic fluorescence properties of the Trp residue in the L1 sequence. […] Differences in the side chain motion/dynamics of the Trp residue and the local environment around the Trp can be observed by monitoring the red-edge excitation shifts (REES). […]

[2] = system: Staphylococcus aureus ATCC 35556; type: cell-based; conditions: highest concentration tested 15 μM
Method: Six different strains of bacteria were streaked on LB-Miller agar plates from a frozen glycerol stock derived from the original samples shipped from CGSC (Coli Genetic Stock Center, Yale University) or ATCC (American Type Culture Collection) (Escherichia coli D31 CGSC 5165 ([Burman, Nordstrom & Boman, 1968]), Staphylococcus aureus ATCC 35556. Pseudomonas aeruginosa PA-01 ATCC 47085, Acinetobacter baumannii ATCC 19606). For each of the strains a liquid overnight culture was prepared using a single colony into fresh LB broth and placed in a shaking incubator for ~ 18 hours at 37 C at 225 rpm. After the incubation period, a 1:200 dilution was made in fresh LB broth and then used for experimentation. Minimal Inhibitory Concentration (MIC) determinations were performed using mid-log phase bacteria diluted to 5 x 10^5 CFU/mL. Next, 90 μL of this diluted culture was then pipetted into a sterile 96-well plate that contains serially diluted aliquots of the peptide variants to consist of a total volume of 100 μL. This plate was then incubated for 18 hours at 37 C. Bacterial growth was determined by taking an OD600 measurement using a Spectramax M5 multimode plate reader post incubation. Minimal Bactericidal Concentration (MBC) was performed by taking 1 μL of the culture from the MIC plate and then pipetting it on to a fresh LB agar plate. After plating this culture, the plate was then incubated overnight at 37 C. MBC was determined by the growth or the lack of growth from each well on the agar plate.
The ability of L1 and the hydrophobic variants to act as antimicrobials was investigated using the Minimal Inhibitory Concentration (MIC) and Minimal Bactericidal Concentration (MBC) assays as previously described ([Wiegand, Hilpert & Hancock, 2008]). The MIC is determined as the lowest concentration of peptide required to inhibit bacterial growth in solution, while the MBC is the lowest concentration required to act in a bactericidal mechanism (as opposed to bacteriostatic) and is determined by plating MIC cultures on antimicrobial-free media. Peptides were screened against E. coli, S. aureus, A. baumannii, P. aeruginosa, B. subtilis, and K. pneumoniae.

[3] = Peptide binding to lipid vesicles by Trp emission barycenter shift; type: physicochemical; conditions: anionic and zwitterionic SUVs titrated into 2 μM peptide in PBS; λex 280 nm, λem 300 to 400 nm
Method: To form small unilamellar vesicles (SUVs) sonication or ethanol dilution methods were implemented ([Caputo & London, 2019]). In all cases, lipid vesicle preparation was the same. Depending on the lipid composition, appropriate volumes of lipids in chloroform were mixed in a glass tube and then allowed to dry under N2 gas for 15 minutes. The lipid films were then placed in a vacuum desiccator and allowed to dry further under a vacuum for 1 hour. For vesicles formed through ethanol dilution methods, 10 μL of pure ethanol was added to the film, and then vortex until the dissipation of the film. While continuing to vortex, the appropriate amount of PBS was added. For vesicles formed using the method of sonication, PBS was added directly to the tube while being vortexed to create multilamellar vesicles (MLVs). […]
All fluorescence spectroscopy experiments were preformed using a JY-Horiba Fluoromax4 instrument. […]
Considering that the first step in the mechanism of action of many AMPs is the binding to the bacterial cell surface, binding to model lipid vesicles was performed. […] The impact of lipid composition on binding to model vesicles was investigated using a simple vesicle titration experiment in which Trp fluorescence was measured after addition of lipid vesicles. […]

FFKEFWTKMKGAGKAFFGKFKGFF [L1F]
REES total shift [1]: ~ 2 nm | MBC S. aureus ([2]; 1 μL of MIC plate culture on LB agar, overnight at 37 C): 1.88 µM | MIC S. aureus ([2]; LB broth, 5 x 10^5 CFU/mL, 18 hours at 37 C, OD600): 0.94 µM | Extent of spectral shift (Trp emission barycenter) on binding lipid vesicles [3]: ~ 14 nm
